According to patent US9206136B2, “Pyrazolyl-based carboxamides I” (Grünenthal GmbH, priority 2013, dated 2015):

Tests used:
[1] = test system: Interleukin-2 (IL-2) production/release in Jurkat T cell line clone E6-1; assay: Jurkat IL-2 Production Assay; assay type: cell-based; conditions: Homo sapiens; Jurkat T cells stimulated with 15 μg/ml PHA for 22 hours; IL-2 in supernatant (AlphaLisa)
Method: Jurkat IL-2 Production Assay
The effect of compounds of the invention on Interleukin-2 (IL-2) production/release was tested in the Jurkat T cell line (ECACC) clone E6-1.
Jurkat T cells were cultured in DMEM/F12/Glutamax (Gibco) containing 10% FCS (Gibco), and maintained at 37° C., 5% CO2. Cells were split twice a week [5·10^6 (Mon-Thu) and 1·10^7 (Thu-Mon) cells/50 ml medium in T-175 ZK culture flasks, respectively].
Prior to experiment, cells were seeded on 96 well plates (Cellstar 96 Well; Cat No. 655180, Greiner bio-one) at a density of 5·10^5 cells/well in DMEM/F12/Glutamax (Gibco) containing 10% FCS (Gibco), and incubated for 60 min at 37° C., 5% CO2. Subsequently, compounds were added and cells were allowed to incubate for 30 min at 37° C., 5% CO2. Cells were then stimulated with 15 μg/ml Phyto-hemagglutinin (PHA; Sigma) for 22 hours at 37° C., 5% CO2.
Before sampling of the supernatants, cells were spun down (200*g/5 min/RT). The amount of IL-2 released into the supernatant was quantified with the human IL-2 AlphaLisa kit (Perkin Elmer) according to manufacturer's instructions. Luminescence proximity measurements were carried out in the Synergy H4 reader (BioTek) employing the fluorescence setting of the reader (ex: 680/30 nm; em: 620/40 nm).
Inhibition of IL-Production/Release in/from Jurkat T Cells Cells was Quantified as Follows:
Zero percent inhibition (MAX) was defined as the [IL-2] determined in supernatants derived from cells to which PHA & DMSO-only had been added instead of compound. Hundred percent inhibition (MIN) was defined as the [IL-2] determined in supernatants derived from cells that had been pre-treated with 1 μM CyclosporineA (Sigma) before the addition of 15 μg/ml PHA.
For routine IC50 determinations of compounds, 8 concentrations of a serial dilution (1:3.16) were tested, starting off from 10 μM.

[2] = molecular target: T1, CRAC channel (endogenous SOC in HEK293 cells) (Homo sapiens, UniProt Q96D31); assay: HEK Calcium Influx Assay (FLIPR); assay type: cell-based; conditions: 10 μM compound, thapsigargin store depletion, Ca2+ signal 9.5-10 min post-administration, read-out: % inhib. [@ 10 μM] FLIPR
T1 construct: host or cells: HEK293
Method: Compounds of the invention have been tested for their effects on CRAC channels according to the following or similar procedures.
The effect of compounds of the invention on intracellular [Ca^2+] was tested in the HEK293 cell line (ECACC).
HEK293 cells were cultured in DMEM/F12/Glutamax (Gibco) containing 10% FCS (Gibco), and maintained at 37° C., 5% CO2. Cell were split twice a week [3·10^6 (Mon-Thu) and 1·10^6 (Thu-Mon) cells/50 ml medium in T-175 ZK culture flasks, respectively]. 24 hours pre-experiment, cells were seeded on 96 well plates (Poly-D-Lysine 96well Black/Clear Plate, BD Biocoat REF 356640) at a density of 40,000 cells/well in DMEM/F12 (Gibco) containing 10% FCS (Gibco), and maintained at 37° C., 5% CO2.
Prior to store-depletion, cell culture medium was removed and cells were loaded with the a Ca^2+-sensitive fluorescent dye comprised within the Calcium-4-assay kit (Molecular Devices) in nominally Ca^2+-free HBS buffer (140 mM NaCl, 4 mM KCl, 0.2 mM MgCl2, 11 mM D-glucose, and 10 mM HEPES, pH 7.4) according to manufacturer's instruction for 60 min at 37° C., 5% CO2.
Passive depletion of intracellular Ca^2+-stores was then triggered by employing the SERCA inhibitor thapsigargin (2 μM final) for 10 min in the dark (rt). To prevent immediate Ca^2+-entry via the activated Store-operated channels (SOCs), cells were maintained in Ca^2+-free HBS buffer comprising 100 μM EGTA during store-depletion.
Intracellular changes in [Ca^2+] were subsequently monitored with the FLIPR device (Molecular Devices). In brief, baseline imaging post-store depletion was allowed for 1 min before adjusting the extracellular buffer to 3 mM CaCl2. Increases in intracellular [Ca^2+] due to pre-activated SOC channels were monitored for 15 min until intracellular Ca^2+ levels had declined into a steady-state. Finally, compounds were administered and Ca^2+ signals were recorded for additional 10 min.
Inhibition of endogenous SOC in HEK293 cells was quantified employing the average Ca^2+ signal measured from 9.5-10 min post-administration. Zero percent inhibition (MAX) was defined as the Ca^2+ signal recorded from wells to which DMSO-only had been added instead of compound. Hundred percent inhibition (MIN) was defined as the signal obtained from wells in which cells haven't been treated with TG prior to Ca^2+ addition and to which DMSO-only had been added instead of compound. For routine IC50 determinations of compounds, 8 concentrations of a serial dilution (1:3.16) were tested, starting off from 10 μM. Reliable IC50's could consequently be determined only, if they were at least sub 2.5-3 μM.

T1 sequence (Q96D31 whole entry): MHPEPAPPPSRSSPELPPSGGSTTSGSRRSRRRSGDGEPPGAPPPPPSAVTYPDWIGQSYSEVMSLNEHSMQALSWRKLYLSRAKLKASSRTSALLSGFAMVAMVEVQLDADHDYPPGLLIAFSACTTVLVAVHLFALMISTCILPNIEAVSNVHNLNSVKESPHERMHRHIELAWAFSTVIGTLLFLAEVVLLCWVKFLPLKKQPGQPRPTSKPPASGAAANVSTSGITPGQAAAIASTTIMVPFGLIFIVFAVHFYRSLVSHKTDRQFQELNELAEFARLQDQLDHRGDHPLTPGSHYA

| SMILES | IC50 [1] [µM] | inhibition at 10 µM [2] [%] |
| --- | --- | --- |
| COc1ccc(-c2nccs2)cc1-c1c(N)c(C(=O)Nc2c(F)cccc2F)nn1C [Example 44, 4-Amino-N-(2,6-difluoro-phenyl)-5-(2-methoxy-5-thiazol-2-yl-phenyl)-1-methyl-1H-pyrazole-3-carboxylic acid amide] | 1 to 5 | < 50 |
| COc1ccc(-c2ncco2)cc1-c1c(N)c(C(=O)Nc2c(F)cncc2F)nn1C [Example 45, 4-amino-N-(3,5-difluoropyridin-4-yl)-5-(2-methoxy-5-(oxazol-2-yl)phenyl)-1-methyl-1H-pyrazole-3-carboxamide] | 1 to 5 | < 50 |
| COc1ccc(-c2ncco2)cc1-c1c(N)c(C(=O)Nc2c(F)cccc2F)nn1C [Example 46, 4-amino-N-(2,6-difluorophenyl)-5-(2-methoxy-5-(oxazol-2-yl)phenyl)-1-methyl-1H-pyrazole-3-carboxamide] | 1 to 5 | < 50 |
| COc1ccc(-c2nccs2)cc1-c1c(N)c(C(=O)Nc2c(F)cncc2F)nn1C [Example 47, 4-amino-N-(3,5-difluoropyridin-4-yl)-5-(2-methoxy-5-(thiazol-2-yl)phenyl)-1-methyl-1H-pyrazole-3-carboxamide] | 1 to 5 | < 50 |
| COc1ccc(C2=NOC(C)(C)C2=O)cc1-c1cc(C(=O)Nc2c(F)cccc2F)nn1C [Example 48] | 0.5 to 1 | < 50 |
| Cn1nc(C(=O)Nc2c(F)cccc2F)c(N)c1-c1cc(-c2ncco2)ccc1OC(F)(F)F [Example 49, 4-amino-N-(2,6-difluorophenyl)-1-methyl-5-(5-(oxazol-2-yl)-2-(trifluoromethoxy)phenyl)-1H-pyrazole-3-carboxamide] | 0.5 to 1 | 50 to 70 |
| Cn1nc(C(=O)Nc2c(F)cncc2F)c(N)c1-c1cc(-c2ncco2)ccc1OC(F)(F)F [Example 50, 4-amino-N-(3,5-difluoropyridin-4-yl)-1-methyl-5-(5-(oxazol-2-yl)-2-(trifluoromethoxy)phenyl)-1H-pyrazole-3-carboxamide] | 1 to 5 | < 50 |
